Measurements taken from ChEMBL document CHEMBL4765281, “Development of a novel nitric oxide (NO) production inhibitor with potential therapeutic effect on chronic inflammation” (Eur J Med Chem, 2020).
Active and inactive are the calls of the source. The rule behind the calls is not given here.

Experiments:
RAW264.7 [1] = experiment: Inhibition of LPS-induced nitric oxide production in mouse RAW264.7 cells at 10 uM measured after 24 hrs by Griess reagent based assay relative to control; format: functional
RAW264.7 [2] = experiment: Inhibition of LPS-induced nitric oxide production in mouse RAW264.7 cells measured after 24 hrs by Griess reagent based assay; format: functional, cell-based; conditions: RAW264.7, 24 h
RAW264.7 [3] = experiment: Cytotoxicity against mouse RAW264.7 cells assessed as reduction in cell viability measured after 24 hrs by MTT assay; format: cell-based; conditions: RAW264.7, 24 h
RAW264.7 [4] = experiment: Inhibition of LPS-induced nitric oxide production in mouse RAW264.7 cells; format: functional, cell-based
Mus musculus [5] = experiment: (§1) Antiinflammatory activity in DBA/1 mouse model of collagen-induced arthritis assessed as CD4-positive cell expression in spleen lymphocytes at 10 mg/kg/day, po administered starting from day 30 and measured on day 63 by APC-conjugated anti-mouse CD4 and FITC-conjugated anti-mouse CD8 staining based flow cytometry relative to control; format: functional; conditions: time 33 day
Mus musculus [6] = experiment: Antiinflammatory activity in DBA/1 mouse model of collagen-induced arthritis assessed as reduction in paw redness at 10 mg/kg/day, po administered starting from day 30; format: functional, organism-based
Mus musculus [7] = experiment: as §1, with “lymph node derived” for “spleen”; format: functional; conditions: time 33 day
Mus musculus [8] = experiment: Antiinflammatory activity in DBA/1 mouse model of collagen-induced arthritis assessed as reduction in arthritis score at 10 mg/kg/day, po administered starting from day 30; format: functional, organism-based
Mus musculus [9] = experiment: as §1, with “CD8-positive” for “CD4-positive”; format: functional; conditions: time 33 day
Mus musculus [10] = experiment: as §1, with “CD4 and CD8-double positive” for “CD4-positive”, “lymph node derived” for “spleen”; format: functional; conditions: time 33 day
Mus musculus [11] = experiment: Antiinflammatory activity in DBA/1 mouse model of collagen-induced arthritis assessed as reduction in IL-6 mRNA expression in joint tissue at 10 mg/kg/day, po administered starting from day 30 and measured on day 63 by RT-PCR analysis; format: functional, organism-based; conditions: time 33.0 day
Mus musculus [12] = experiment: as §1, with “CD4 and CD8- double positive” for “CD4-positive”; format: functional; conditions: time 33 day
Mus musculus [13] = experiment: as §1, with “CD8-positive” for “CD4-positive”, “lymph node derived” for “spleen”; format: functional; conditions: time 33 day
Mus musculus [14] = experiment: Antiinflammatory activity in DBA/1 mouse model of collagen-induced arthritis assessed as reduction in IL-1beta mRNA expression in joint tissue at 10 mg/kg/day, po administered starting from day 30 and measured on day 63 by RT-PCR analysis; format: functional, organism-based; conditions: time 33.0 day
Mus musculus [15] = experiment: Antiinflammatory activity in DBA/1 mouse model of collagen-induced arthritis assessed as reduction in cartilage destruction at 10 mg/kg/day, po administered starting from day 30 and measured on day 63 by H and E/Safranin O staining based microscopic analysis; format: functional, organism-based; conditions: time 33.0 day
Rattus norvegicus [16] = experiment: Antiinflammatory activity in Lewis rat model of adjuvant-induced arthritis assessed as improvement in disease pathology at 10 mg/kg/day, po administered starting from day 14 and measured on day 28 by H and E/Safranin O staining based microscopic analysis; format: functional, organism-based; conditions: time 14.0 day
RAW264.7 [17] = experiment: Inhibition of LPS-induced iNOS expression in mouse RAW264.7 cells measured after 24 hrs by Western blot analysis; format: functional, cell-based
Mus musculus [18] = experiment: Antiinflammatory activity in DBA/1 mouse model of collagen-induced arthritis assessed as reduction in TNFalpha mRNA expression in joint tissue at 10 mg/kg/day, po administered starting from day 30 and measured on day 63 by RT-PCR analysis; format: functional, organism-based; conditions: time 33.0 day
Rattus norvegicus [19] = experiment: Antiinflammatory activity in Lewis rat model of adjuvant-induced arthritis assessed as reduction in arthritis score at 10 mg/kg/day, po administered starting from day 14; format: functional, organism-based
Mus musculus [20] = experiment: Antiinflammatory activity in DBA/1 mouse model of collagen-induced arthritis assessed as appearance of intact joint structure at 10 mg/kg/day, po administered starting from day 30 and measured on day 63 by H and E/Safranin O staining based microscopic analysis; format: functional, organism-based; conditions: time 33.0 day
Rattus norvegicus [21] = experiment: Antiinflammatory activity in Lewis rat model of adjuvant-induced arthritis assessed as reduction in disease symptom at 10 mg/kg/day, po administered starting from day 14; format: functional, organism-based

COc1cc(O)c(C(=O)/C=C/c2cc(OC)c(OC)c([N+](=O)[O-])c2)c(OC)c1
inhibition at 10 µM (RAW264.7 [1]): 30.8%

COc1cc(O)c(C(=O)/C(C)=C/c2ccccc2)c(OC)c1
inhibition at 10 µM (RAW264.7 [1]): 57.5%

COc1cccc(/C=C/C(=O)c2ccc(OC)cc2O)c1
inhibition at 10 µM (RAW264.7 [1]): 82.5%
IC50 (RAW264.7 [2]): 3.2 µM
IC50 (RAW264.7 [3]): 29.7 µM

COc1cccc(/C=C/C(=O)c2c(OC)cc(OC)cc2OC(C)=O)c1
inhibition at 10 µM (RAW264.7 [1]): 84.6%
IC50 (RAW264.7 [2]): 3.6 µM
IC50 (RAW264.7 [3]): 30.7 µM

O=c1cc(-c2ccc(O)c(O)c2)oc2cc(O)cc(O)c12 [LUTEOLIN]
inhibition at 10 µM (RAW264.7 [1]): 54.6%
IC50 (RAW264.7 [2]): 9.2 µM
IC50 (RAW264.7 [3]): > 40 µM

COc1cc(O)c(C(=O)/C=C/c2ccc(OC)c(OC)c2)c(OC)c1
inhibition at 10 µM (RAW264.7 [1]): 78.7%

COc1cc(O)c(C(=O)/C=C/c2cccnc2)c(OC)c1
inhibition at 10 µM (RAW264.7 [1]): 78%

COc1cc(O)c(C(=O)/C=C/c2ccc(Br)cc2)c(OC)c1
inhibition at 10 µM (RAW264.7 [1]): 70.2%

COc1cc(O)c(C(=O)/C=C/c2cc(OC)c(OC)cc2OC)c(OC)c1
inhibition at 10 µM (RAW264.7 [1]): 78.4%

COc1cc(O)c(C(=O)/C=C/c2ccc(OCCCN3CCN(C)CC3)c(OC)c2)c(OC)c1
inhibition at 10 µM (RAW264.7 [1]): 70.4%

CC1(C)C=Cc2c(ccc(C(=O)/C=C/c3ccc(O)cc3)c2O)O1
IC50 (RAW264.7 [4]): 10.2 µM

COc1ccc(OC)c(/C=C(\F)C(=O)c2c(O)cc(OC)cc2OC)c1
inhibition at 10 µM (RAW264.7 [1]): 42.6%

COc1ccccc1C(=O)/C=C/c1ccc(Cl)c(Cl)c1
IC50 (RAW264.7 [4]): 7.1 µM

CCOc1cc(OC)cc(OC)c1C(=O)/C=C/c1cccc(OC)c1
inhibition at 10 µM (RAW264.7 [1]): 85.6%
IC50 (RAW264.7 [2]): 2.7 µM
IC50 (RAW264.7 [3]): 34 µM

COc1ccc(/C=C/C(=O)c2c(O)cc(OC)cc2OC)c(OC)c1
inhibition at 10 µM (RAW264.7 [1]): 67.6%

COc1cc(O)c(C(=O)/C=C/c2ccc(O)cc2)c(OC)c1 [FLAVOKAWAIN C]
inhibition at 10 µM (RAW264.7 [1]): 66.8%

COc1cc(O)c(C(=O)/C(F)=C/c2ccc(OC)c(OC)c2)c(OC)c1
inhibition at 10 µM (RAW264.7 [1]): 62.6%

COc1cccc(CCC(=O)c2c(O)cc(OC)cc2OC)c1
inhibition at 10 µM (RAW264.7 [1]): 52.2%

COc1cc(O)c(C(=O)/C=C/c2ccccc2)c(OC)c1 [FLAVOKAWAIN B]
inhibition at 10 µM (RAW264.7 [1]): 80.6%
IC50 (RAW264.7 [2]): 4.2 µM
IC50 (RAW264.7 [3]): 26.5 µM

COc1cccc(OC)c1C(=O)/C=C/c1ccc(N(C)C)cc1
IC50 (RAW264.7 [4]): 0.6 µM

COc1cc(O)c(C(=O)/C=C/c2ccc(OCCCN3CCCC3)c(OC)c2)c(OC)c1
inhibition at 10 µM (RAW264.7 [1]): 83.1%
IC50 (RAW264.7 [2]): 6.5 µM
IC50 (RAW264.7 [3]): > 40 µM

COc1cc(O)c(C(=O)/C=C/c2ccc(OCCCN3CCOCC3)c(OC)c2)c(OC)c1
inhibition at 10 µM (RAW264.7 [1]): 84%
Activity (Mus musculus [5]): 39.1%
Activity (Mus musculus [6]): Active
Activity (Mus musculus [7]): 29.3%
Activity (Mus musculus [8]): Active
Activity (Mus musculus [9]): 28.7%
Activity (Mus musculus [10]): 2.13%
Activity (Mus musculus [11]): Active
Activity (Mus musculus [12]): 0.527%
Activity (Mus musculus [13]): 27.4%
Activity (Mus musculus [14]): Active
IC50 (RAW264.7 [2]): 6.4 µM
Activity (Mus musculus [15]): Active
Activity (Rattus norvegicus [16]): Active
inhibition (RAW264.7 [17]): Dose-dependent effect
Activity (Mus musculus [18]): Active
Activity (Rattus norvegicus [19]): Active
IC50 (RAW264.7 [3]): > 80 µM
Activity (Mus musculus [20]): Active
Activity (Rattus norvegicus [21]): Active

COc1ccc(OC)c(C(=O)/C=C/c2ccc(N(C)C)cc2)c1
IC50 (RAW264.7 [4]): 0.7 µM

CC(C)=CCc1cc(C(=O)/C=C/c2ccc(O)c(O)c2)c(O)cc1O [BROUSSOCHALCONE A]
IC50 (RAW264.7 [4]): 11.3 µM

COc1cccc(C(=O)/C=C/c2cc(OC)c(OC)c(OC)c2)c1
IC50 (RAW264.7 [4]): 2.88 µM

COc1ccc(/C=C(\C)C(=O)c2c(O)cc(OC)cc2OC)cc1
inhibition at 10 µM (RAW264.7 [1]): 41.6%

COc1cc(O)c(C(=O)/C=C/c2ccc([N+](=O)[O-])cc2)c(OC)c1
inhibition at 10 µM (RAW264.7 [1]): 35.4%

CC(C)=CCc1c(O)ccc(C(=O)/C=C/c2ccc(O)cc2)c1O [ISOBAVACHALCONE]
IC50 (RAW264.7 [4]): 1.6 µM

COc1cccc(O)c1C(=O)/C=C/c1ccccc1
IC50 (RAW264.7 [4]): 9.6 µM
